Measured values taken from patent US5328900A, “Anti-thrombotic peptide and pseudopeptide derivatives” (Rhone-Poulenc Rorer Pharmaceuticals Inc., priority 1992, dated 1994).
Where a SMILES comes first, the peptide text is derived from it. [ ]: non-standard residue; d: D form. Aze = O=C(O)[C@@H]1CCN1; Inp = O=C(O)C1CCNCC1

Legend:
[1] = biological target: T1, fibrinogen binding to thrombin-stimulated platelets (Homo sapiens, UniProt P05106+P08514); experiment: Inhibition of radiolabeled (125I) fibrinogen binding assay
T1 construct: endogenous in cells; host or cells: washed platelets stimulated with human alpha-thrombin
Procedure: I. Inhibition of Radiolabeled (^125 I) Fibrinogen Binding Assay, which is essentially based on the method described in Proc. Natl. Acad. Sci. USA Vol. 83, pp. 5708-5712, August 1986, and is as follows.
Platelets are washed free of plasma constituents by the albumin density-gradient technique. In each experimental mixture platelets in modified Tyrode's buffer are stimulated with human α-thrombin at 22°-25° C. for 10 minutes (3.125×10" platelets per liter and thrombin at […]). Hirudin is then added at a 25-fold excess for 5 minutes before addition of the radiolabeled ligand and any competing ligand. After these additions, the final platelet count in the mixture is 1×10"/liter. After incubation for an additional 30 minutes at 22°-25° C., bound and free ligand are separated by centrifuging 50 μl of the mixture through 300 μl of 20% sucrose at 12,000×g for 4 minutes. The platelet pellet is then separated from the rest of the mixture to determine platelet-bound radioactivity. Nonspecific binding is measured in mixtures containing an excess of unlabeled ligand. When binding curves are analyzed by Scatchard analysis, nonspecific binding is derived as a fitted parameter from the binding isotherm by means of a computerized program. […]

[2] = test system: Human platelets; experiment: Inhibition of fibrinogen-mediated platelet aggregation; format: cell-based; conditions: for IC50: thrombin-activated human platelets, rate of aggregation
Procedure: II. Inhibition of Fibrinogen-Mediated Platelet Aggregation, which is essentially based on the method described in Blood, Vol. 66, No. 4, October 1985, pp. 946-952, and is as follows.
Human platelets were isolated from freshly drawn whole blood and were suspended in 0.14 mol/L NaCl, 2.7 mmol/L […], 12 mmol/L NaHCO3, 0.42 mmol/L Na2 HPO4, 0.55 mmol/L glucose, and 5 mmol/L Hepes, pH 7.35 at 2×10^8 platelets/ml. The suspension was incubated at 37° C. An aliquot of 0.4 ml of platelet suspension was activated by human thrombin at a final concentration of 2 μg/ml of thrombin for one minute. After one minute the reaction was stopped by a thrombin inhibitor. Serial dilution of the compound being tested was then added to the activated platelet, the reaction was allowed to proceed for one minute, followed by the addition of human fibrinogen at a final concentration of […] of fibrinogen. Platelet aggregation was then recorded by an aggregometer. Rate of aggregation was used to calculate IC50.

T1 sequence (P08514 32-887 limits assumed): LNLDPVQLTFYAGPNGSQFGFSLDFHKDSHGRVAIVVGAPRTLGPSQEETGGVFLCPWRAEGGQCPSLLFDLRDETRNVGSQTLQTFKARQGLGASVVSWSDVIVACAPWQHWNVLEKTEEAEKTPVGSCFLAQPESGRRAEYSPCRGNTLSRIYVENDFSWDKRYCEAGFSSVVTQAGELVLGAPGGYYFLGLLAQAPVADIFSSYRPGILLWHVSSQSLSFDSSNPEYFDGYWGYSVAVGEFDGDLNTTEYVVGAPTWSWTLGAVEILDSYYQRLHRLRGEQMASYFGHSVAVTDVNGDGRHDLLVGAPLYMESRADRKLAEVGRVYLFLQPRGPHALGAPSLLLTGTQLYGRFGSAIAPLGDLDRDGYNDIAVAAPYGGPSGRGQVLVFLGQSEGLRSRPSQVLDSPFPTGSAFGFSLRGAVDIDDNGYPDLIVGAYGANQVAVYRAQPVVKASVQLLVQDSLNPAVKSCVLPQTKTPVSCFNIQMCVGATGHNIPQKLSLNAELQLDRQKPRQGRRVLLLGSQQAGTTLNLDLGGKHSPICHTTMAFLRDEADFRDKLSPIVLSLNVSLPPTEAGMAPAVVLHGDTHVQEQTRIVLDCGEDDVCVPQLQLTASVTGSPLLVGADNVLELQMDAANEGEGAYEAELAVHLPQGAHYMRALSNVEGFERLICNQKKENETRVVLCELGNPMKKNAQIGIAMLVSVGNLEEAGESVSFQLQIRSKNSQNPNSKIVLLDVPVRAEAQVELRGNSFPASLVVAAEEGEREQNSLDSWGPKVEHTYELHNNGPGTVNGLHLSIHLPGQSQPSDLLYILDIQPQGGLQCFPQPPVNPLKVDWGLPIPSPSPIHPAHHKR
T1 sequence (P08514 891-1039 partner limits assumed): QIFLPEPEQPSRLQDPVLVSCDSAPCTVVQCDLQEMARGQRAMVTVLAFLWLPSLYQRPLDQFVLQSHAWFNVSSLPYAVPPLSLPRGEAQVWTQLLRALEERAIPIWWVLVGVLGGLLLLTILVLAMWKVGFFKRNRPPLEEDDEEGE
T1 sequence (P05106 27-788): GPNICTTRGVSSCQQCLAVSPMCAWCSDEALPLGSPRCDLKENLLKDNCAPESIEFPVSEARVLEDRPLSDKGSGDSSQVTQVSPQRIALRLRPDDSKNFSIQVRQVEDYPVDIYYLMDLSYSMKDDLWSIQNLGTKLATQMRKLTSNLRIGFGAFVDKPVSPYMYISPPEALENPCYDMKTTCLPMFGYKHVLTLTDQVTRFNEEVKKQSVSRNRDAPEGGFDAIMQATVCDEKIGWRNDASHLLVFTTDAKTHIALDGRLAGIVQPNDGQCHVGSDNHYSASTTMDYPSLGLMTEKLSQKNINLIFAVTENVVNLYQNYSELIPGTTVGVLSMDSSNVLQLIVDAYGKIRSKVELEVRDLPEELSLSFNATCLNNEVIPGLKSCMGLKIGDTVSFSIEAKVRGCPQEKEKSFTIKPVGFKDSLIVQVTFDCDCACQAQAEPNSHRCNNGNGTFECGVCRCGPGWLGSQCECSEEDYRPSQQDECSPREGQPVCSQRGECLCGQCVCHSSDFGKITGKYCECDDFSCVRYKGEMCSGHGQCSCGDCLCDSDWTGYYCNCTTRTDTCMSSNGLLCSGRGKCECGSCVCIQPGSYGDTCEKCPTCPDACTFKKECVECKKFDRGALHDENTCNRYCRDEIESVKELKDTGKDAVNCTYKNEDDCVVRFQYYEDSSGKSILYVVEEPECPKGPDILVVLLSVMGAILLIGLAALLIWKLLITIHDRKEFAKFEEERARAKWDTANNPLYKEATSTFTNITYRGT

Inhibition of 125I-fibrinogen binding, extent at 25 μM ([1]; 25 μM) | IC50 [2] | IC50 ([1]; thrombin-stimulated washed platelets, 125I-fibrinogen 0.176 μmol/liter) | Compound | Inhibition of Fibrinogen Mediated Platelet Aggregation % inhibition at 25 μM [2]
15% | > 200 µM | – | CC(C)[C@H](NC(=O)[C@H](CC(=O)O)NC(=O)[C@@H]1CCN1C(=O)C1CCN(C(=N)N)CC1)C(=O)O [N-[2(S)-1-(amidinopiperidin-4-yl-carbonyl)-azetidin-2-yl-carbonyl]-L-aspartyl-L-valine] | 15%
– | 29.6 µM | > 64 µM | CC(C)[C@H](NC(=O)[C@H](CC(=O)O)NC(=O)[C@@H]1CCN1C(=O)C1CCNCC1)C(=O)O [N-[2(S)-1-(piperidin-4-yl-carbonyl)azetidin-2-yl-carbonyl]-L-aspartyl-L-valine] (H-[Inp][Aze]DV-OH) | 47%
